For assay [1], the system named is MAT-LyLu-B2 prostate cancer cells. The experiment in a line: orthoptic prostate cancer rat model (tumor progression). It counts as in vivo. The settings on record: male Copenhagen rats, 3 mg/kg s.c. daily from day 1, 21 days after surgery, n=5-6, p<0.05; saline 1856±443 mg. As for the experimental part: The potential of a BKB1-R antagonist to inhibit tumor progression in an orthoptic prostate cancer rat model was evaluated. Under anesthesia, male Copenhagen rats were injected in the anterior prostatic lobe with 100 000 MAT-LyLu-B2 prostate cancer cells. One day after the surgery, the animals received a daily injection of either saline or Compound A (3 mg/kg s.c.). At 21 days after the surgery, the animals were sacrificed and the prostate tumor was excised and weighted. Average weight of the prostate and tumor was 1856±443 mg for saline-treated rats and 504±135 mg with Compound A-treated animals (n=5-6 p<0.05). Two other cancerous cell-types (R 3327-G, MAT-Lu) were implanted in rats and similar results were obtained at inhibiting tumor progression dose-dependently over periods of time. A BKB1-Ra was also reported effective at stopping and reversing the progression of established tumor, considering efficacy, reversibility and relapse of treatment. These elements were maintained upon dual and triple combinations with other anti-cancer, anti-angiogenic, anti-proliferative agents such as taxane and platinum related compounds.

In assay [2] the test system is PC-3 cells. The conditions noted are these: in vitro, cited from earlier work.

Turning to “Ac-Orn[Oic^2,(α-Me)Phe^5,D-βNal^7,Ile^8]desArg^9BK [Compound A]”, the “Average weight of the prostate and tumor” value in assay [1] came out at 504 ± 135 mg.
Turning to “Arg Pro Pro Gly Phe Ser Pro Phe (RPPGFSPF; desArg9 BK) [desArg^9-BK]”, in assay [2] (BKB1-R agonist alone), the “cell growth and proliferation of PC-3 cells” value was “stimulated”.
On to [Leu^8]desArg^9-BK, for which the “effect on desArg^9-BK-stimulated growth of PC-3 cells” value in assay [2] (growth stimulated by desArg^9-BK) is “blocked”.
